# According to patent publication US12133915B2, “Method of treating epilepsy” (ALEXZA PHARMACEUTICALS, INC., priority 2016, dated 2024):
# Key:
# [1] = system: rat; test: Rat inhalation MTD study; type: in vivo
# [2] = system: cytochrome P450; test: In vitro cytochrome P450 inhibition potential; type: in vitro ADME; conditions: maximum alprazolam concentration tested
# Excerpt: (§1) In vitro drug transporter and cytochrome P450 inhibition potential were also studied.
# [3] = system: dogs; test: 5-day exploratory inhalation toxicity study in dogs; type: in vivo; conditions: 5-day inhalation
# Description: In a 5-day exploratory inhalation toxicity study in dogs, the no-observed-adverse-effect level was 1.5 mg/kg/day for treatment-related histopathological findings.
# [4] = system: dogs; test: 28-day GLP inhalation toxicity study with 14-day recovery in dogs; conditions: 28-day inhalation
# [5] = Aerosol particle size distribution by Next Generation Pharmaceutical Impactor (NGI); type: physicochemical; conditions: condensation aerosol, FIG. 4
# Excerpt: At least 80% by weight of the alprazolam aerosol particles have a size less than 5 microns, preferably at least 90% by weight of the alprazolam aerosol particles have a size less than 5 microns. At least 50% by weight of the alprazolam aerosol particles have a size less than 2 microns, preferably at least 50% by weight of the alprazolam aerosol particles have a size less than 1 micron. The Next Generation Pharmaceutical Impactor (NGI) was used to determine the particle size distribution.
# [6] = system: rats; test: 14-day inhalation toxicity study in rats; type: in vivo
# Description: In the 14-day inhalation toxicity study in rats, the no-adverse-effect level was considered to be 10.3 mg/kg/day.
# [7] = Pharmacokinetic study in dogs, intravenous or inhalation administration; conditions: dog, in vivo
# Excerpt: In a pharmacokinetic (PK) study in dogs, alprazolam PK was profiled following either intravenous or inhalation administration.
# [8] = system: drug transporter; test: In vitro drug transporter inhibition potential; type: in vitro ADME; conditions: maximum alprazolam concentration tested
# Excerpt: as §1
# [9] = Plasma concentration of alprazolam in phase 1 and phase 2a clinical trials; type: in vivo, human
# Description: (§2) Patients at least 18 years old with photosensitive epilepsy at 3 sites were tested on a baseline day, and then received in randomized order either inhaled placebo (on 2 days) or 0.5, 1 or 2 mg inhaled alprazolam delivered using a hand-held inhaled alprazolam device. Study days were separated by at least 1 week. Presence (and degree) of photosensitivity was measured predose, then at 2 min, 10 min, 30 min, 1, 2, 4 and 6 hours post-dose. Plasma concentration of study drug was measured at each time point. Sedation was assessed at each time point using the 100-mm linear visual analogue scale (VAS).
# FIGS. 5A and 5B show graphs of the mean plasma concentration of alprazolam in phase 1 and phase 2a clinical trials respectively. The graphs indicate a rapid uptake of alprazolam into the plasma after […] administration of the condensation aerosol. […] Mean peak plasma concentration occurred one to two minutes after administration of the alprazolam […] aerosol.
# [10] = system: patients with photosensitive epilepsy (IPS-induced photoparoxysmal EEG response); test: Intermittent photic stimulation (IPS) photosensitivity model, Phase 2a proof-of-concept study; type: in vivo, human
# Description: Example 1 evaluated the ability of inhaled alprazolam to rapidly suppress photosensitivity in a double blind placebo-controlled crossover proof of concept study. This study was an in-clinic, randomized, placebo-controlled, double-blind design, 5-way crossover study design, which allowed for small patient size. Epilepsy patients were evaluated using an Intermittent Photic Stimulation model, allowing for screening for antiepileptic effects without triggering seizures or convulsive responses. Three doses of alprazolam were investigated along with placebo (twice) in 5 subjects.
# In patients with photosensitive epilepsy, intermittent photic stimulation was used to elicit generalized epileptiform EEG activity. The subject is exposed to certain frequency of light stimulation (flash frequencies), and photosensitivity range measured. The model has been used to identify antiepileptic effects on a number of drugs.
# The primary objectives of the study were to assess 1) the effects of inhaled alprazolam on the IPS-induced photoparoxysmal EEG response in patients with epilepsy, 2) the sedative properties of these doses in order to select maximally-effective dose with the least sedation for further clinical studies, and 3) overall safety. The primary endpoint was the change in the Standard Photosensitivity Range (SPR) in subjects receiving each dose of inhaled alprazolam.
# as §2
# The test subjects were exposed to intermittent photic stimulation (14 frequencies, from 2 to 60 Hz), starting with lowest frequency and increasing frequency stepwise until a photosensitivity response was elicited. The test was repeated with the highest frequency and decreased frequency. The results can be summarized in a quantitative measure known as the Standardized Photosensitive Range (SPR). The Maximum SPR is 14. In the example shown, SPR is 8. The Primary endpoint is reduction in mean SPR, which is an indication of antiseizure activity. Patients that have a relatively stable SPR were enrolled in the study to allow for small study size.
# [11] = system: patients with photosensitive epilepsy; test: Adverse events and tolerability, Phase 2a study; type: in vivo, human; conditions: for Cough, subjects with adverse event / Dizziness, subjects with adverse event / Dysgeusia, subjects with adverse event / Oral Dysaesthesia, subjects with adverse event / Sedation/somnolence, subjects with adverse event: N = 5
# Excerpt: (§3) Secondary study endpoints included assessment of sedation using two visual analogue scales (VAS); correlation of plasma concentrations of inhaled alprazolam with PD effects on the SPR range; correlation of plasma concentrations of inhaled alprazolam with PD effects on sedation; and assessment of adverse events and changes in the neurological examination.
# An assessment of adverse events and changes in the neurological examination were made. The safety profile was consistent with oral alprazolam.
# [12] = system: dogs; test: Cardiovascular and respiratory safety study in dogs, intravenous dosing; type: in vivo
# Description: However, these changes were within normal ranges and not considered biologically significant. The plasma concentration of alprazolam associated with modest cardiovascular or respiratory effects exceeded 900 ng/mL and would not be expected to induce any significant changes at the range of doses planned considered for clinical studies (0.5 to 2.0 mg).
# [13] = cited from earlier work
# [14] = system: patients with photosensitive epilepsy; test: Sedation by visual analogue scale (VAS), Phase 2a study; type: in vivo, human
# Description: as §2, §3
# Assessment of the sedation using 2 visual analogue scales was made. […] A correlation of plasma concentrations of inhaled alprazolam with pharmacodynamic effects on sedation was made. […] Maximum sedation occurred within about two minutes of administration of alprazolam. Clinical observations support early onset of sedation at 30 seconds.
# [15] = all treatment arms of the crossover (incl. placebo)
compound,measurement,setting,value
"Cc1nnc2n1-c1ccc(Cl)cc1C(c1ccccc1)=NC2 [alprazolam, 8-chloro-1-methyl-6-phenyl-4H-[1,2,4]triazolo [4,3-α][1,4]-benzodiazepine]",single inhaled dose well tolerated,[1],up to 10.8 mg/kg
same,cytochrome P450 inhibition,[2],No inhibition
same,no-observed-adverse-effect level for treatment-related histopathological findings,[3],1.5 mg/kg/day
same,deaths during the study,[4],no deaths
same,immunogenic potential,[4],no immunoglobulin or hypersensitivity response
same,no-observed-effect level for histopathological findings,[4]; females,4.4 mg/kg/day
same,no-observed-effect level for histopathological findings,[4]; males,2.8 mg/kg/day
same,mass median aerodynamic diameter (MMAD) of aerosol particles,[5],1.2 to 1.8 microns
same,no-adverse-effect level,[6],10.3 mg/kg/day
same,Tmax,"[7]; inhaled or intranasal, inhalation",< 1 min
same,bioavailability,"[7]; inhaled, inhalation versus intravenous",85 to 96%
same,drug transporter inhibition,[8],No inhibition
same,"PK analysis, plasma concentrations versus dose","[9]; 0.5, 1, 2 mg",dose proportionality
same,time of mean peak plasma concentration,[9]; after administration of condensation aerosol,one to two
same,"rapid rise in alprazolam plasma levels, time",[9]; inhaled,less than 2 min
same,effect on photosensitivity,[10]; 1 mg and 2 mg doses,almost complete elimination of the photosensitivity
same,time reduction of SPR was maintained,[10]; after administration,at least six
same,change in mean standardized photosensitivity range (SPR),"[10]; all doses (0.5, 1, 2 mg inhaled)",decreased
same,time to maximal or near-maximal effect on SPR,"[10]; all doses, post dose",≤ 2 min
same,maximal decrease in SPR,[10]; at least at the earlier time points,approximately 5 steps
same,duration of effects on SPR,[10]; higher doses,4 h
same,onset of SPR response,[10]; in vivo,less than two
same,time to suppression of epileptic activity / effects on EEG,[10]; patients with photosensitive epilepsy,≤ 2 min
same,epileptiform activity in post-dose EEG traces,"[10]; representative patient, FIG. 7B",complete abolishment of epileptiform activity
same,"Cough, subjects with adverse event",[11]; 0.5 mg,2 n
same,"Dizziness, subjects with adverse event",[11]; 0.5 mg,1 n
same,"Dysgeusia, subjects with adverse event",[11]; 0.5 mg,2 n
same,"Oral Dysaesthesia, subjects with adverse event",[11]; 0.5 mg,2 n
same,"Sedation/somnolence, subjects with adverse event",[11]; 0.5 mg,1 n
same,"Cough, subjects with adverse event",[11]; 1 mg,1 n
same,"Dizziness, subjects with adverse event",[11]; 1 mg,0 n
same,"Dysgeusia, subjects with adverse event",[11]; 1 mg,2 n
same,"Oral Dysaesthesia, subjects with adverse event",[11]; 1 mg,0 n
same,"Sedation/somnolence, subjects with adverse event",[11]; 1 mg,2 n
same,"Cough, total number of subjects experiencing an event",[11]; [15],2
same,"Dizziness, total number of subjects experiencing an event",[11]; [15],1
same,"Dysgeusia, total number of subjects experiencing an event",[11]; [15],2
same,"Oral Dysaesthesia, total number of subjects experiencing an event",[11]; [15],2
same,"Sedation/somnolence, total number of subjects experiencing an event",[11]; [15],2
same,serious adverse events,"[11]; doses up to 2 mg, listed as inhaled alprazolam",no reported serious adverse events
same,tolerability of treatment,[11]; in vivo,well tolerated
same,plasma concentration associated with modest cardiovascular or respiratory effects,[12]; intravenous,exceeded 900 ng/mL
same,heart rate,[12]; intravenous over 5 sec,transient increase
same,respiratory rate,[12]; intravenous over 5 sec,transient decrease
same,solubility in chloroform,[13]; chloroform,freely soluble
same,solubility in ethanol,[13]; ethanol,soluble
same,solubility in methanol,[13]; methanol,soluble
same,solubility in water,[13]; water,practically insoluble
same,"sedation, relation to dose","[14]; 0.5, 1, 2 mg",dose related
same,time to maximum sedation (VAS),[14]; after administration,two
same,"early onset of sedation, clinical observations",[14]; in vivo,30 s
same,onset of VAS (sedation) response,[14]; in vivo,less than two
